Reference: ChEMBL document CHEMBL1133139, “Stereochemistry of halopyridyl and thiazolyl thiourea compounds is a major determinant of their potency as nonnucleoside inhibitors of HIV-1 reverse transcriptase” (Bioorg Med Chem Lett, 2000)

Legend:
[1] = Inhibit the replication of the HIV-1 strain […] in human peripheral blood mononuclear cell; assay type: functional
[2] = target: T1, Human immunodeficiency virus type 1 reverse transcriptase (Human immunodeficiency virus 1, UniProt Q72547); experiment: Compound was evaluated for its inhibitory activity against recombinant HIV-1 Reverse transcriptase using cell free RT inhibition assay
[3] = target: T1, Human immunodeficiency virus type 1 reverse transcriptase; experiment: Binding affinity against HIV reverse transcriptase (Estimated Ki)
[4] = tested on: Human immunodeficiency virus 1; experiment: Inhibitory activity against NNI-resistant HIV-1 strain A17 with Y181C mutation; assay type: functional, organism-based
[5] = tested on: Human immunodeficiency virus 1; experiment: Inhibitory activity against NNI-resistant HIV-1 strain A17 with Y181C,K103N mutation; assay type: functional, organism-based
H9 = experiment: Inhibitory activity against multidrug resistant HIV-1 strain RT-MDR; assay type: functional, cell-based; conditions: Homo sapiens
[6] = Compound was evaluated for its ability to inhibit the replication of the HIV-1 strain […] in human peripheral blood mononuclear cells; assay type: functional

| SMILES | IC50 [1] [µM] | IC50 [2] [µM] | Ki [3] [µM] | IC50 [4] [µM] | IC50 [5] [µM] | IC50 (H9) [µM] | IC50 [6] [µM] |
| --- | --- | --- | --- | --- | --- | --- | --- |
| C[C@H](/N=C(\S)Nc1ccc(Cl)cn1)C1CCCCC1 | > 1 | > 100 | > 100 |  |  |  |  |
| C[C@H](NC(=S)Nc1ccccn1)C1CCCCC1 | > 1 | > 100 | > 100 |  |  |  |  |
| Fc1ccccc1CCNC(=S)Nc1ccc(Br)cn1 | < 0.001 |  | 0.6 | 0.2 | 41 | 0.005 |  |
| Cc1ccnc2c1NC(=O)c1cccnc1N2C1CC1 [NEVIRAPINE] | 0.034 |  |  | > 100 | > 100 | 5 |  |
| C[C@@H](NC(=S)Nc1ccc(Br)cn1)C1CCCCC1 |  | 1.2 | 1.1 | 0.4 | 10 | 0.2 | 0.001 |
| C[C@@H](/N=C(\S)Nc1nccs1)C1CCCCC1 | 0.001 | 13 | 12 | 0.9 | 5.8 | 5.6 |  |
| C[C@H](NC(=S)Nc1nccs1)C1CCCCC1 | > 1 | > 100 | > 100 |  |  |  |  |
| C[C@@H](NC(=S)Nc1ccc(Cl)cn1)c1ccccc1 | 0.01 | 1.2 |  | 0.2 | 10.2 | 0.01 |  |
| C[C@@H](/N=C(\S)Nc1ccccn1)C1CCCCC1 | > 1 | > 100 | > 100 |  |  |  |  |
| C[C@H](/N=C(\S)Nc1ccc(Br)cn1)c1ccccc1 | > 1 | > 100 |  |  |  |  |  |
| C[C@@H](/N=C(\S)Nc1ccc(Cl)cn1)C1CCCCC1 | 0.025 | 1.4 | 1.2 | 0.07 | 8.2 | 0.06 |  |
| CC(C)Nc1cccnc1N1CCN(C(=O)c2cc3cc(NS(C)(=O)=O)ccc3[nH]2)CC1 [DELAVIRDINE] | 0.009 |  |  | 50 | > 100 | 0.4 |  |
| C[C@H](/N=C(\S)Nc1ccc(Cl)cn1)c1ccccc1 |  | > 100 |  |  |  |  |  |
| S=C(NCCc1ccccn1)Nc1ccc(Br)cn1 [TROVIRDINE] | 0.007 |  | 0.6 | 0.5 | > 100 | 0.02 |  |
| C[C@H](/N=C(\S)Nc1ccc(Br)cn1)C1CCCCC1 | > 1 | > 100 | > 100 |  |  |  |  |
| C[C@@H](NC(=S)Nc1ccc(Br)cn1)c1ccccc1 | 0.01 | 1.6 |  | 0.01 | 2.7 | 0.005 |  |
